The record followed here is patent publication US6548531B2, “Method for cancer therapy” (priority 2001, dated 2003).

Molecules are shown by their SMILES.

Data set [1] is described as follows: Toxicity (body weight, deaths) in tumor-bearing mice. The settings on record: 3 weeks. How it is done: Drug Preparation and Treatment: Suspensions of Compound II were prepared by combining the drug and Pluronic F68 block copolymer at 1:9 or 1:18 ratios of drug to polymer, to prepare suspensions in the concentration range 0-10 mg/ml and 20 mg/ml respectively. […] The final ratio of liquid components (EtOH, Cremophor, and saline) were 5:5:90, respectively. The experiment consisted of 16 groups which contained a vehicle group, 3 groups given Paclitaxel at 7.5, 15 and 30 mg/kg as a single agent, 3 groups given Compound II at 12.5, 25 and 50 mg/kg as a single agent and […] combination groups of all doses of Paclitaxel and Compound II.
All mice were observed and weighed as groups, 7 times per week for three weeks. The average weight of individual mice was calculated by dividing the group weight by the number of animals per group. Percent body weight change was calculated using the formula:
(Current Average Weight−Initial Average Weight/Initial Average Weight) ×100.

The test system of data set [2] is MDA-MB-435 breast adenocarcinoma xenograft. The experiment in a line: In vivo antitumor activity, established mammary fat pad xenograft. To be noted: low doses as single agents, 3 weeks i.p.

Take `CC(=O)O[C@H]1C(=O)[C@@]2(C)[C@H]([C@H](OC(=O)c3ccccc3)[C@]3(O)C[C@H](OC(=O)[C@H](O)[C@@H](NC(=O)c4ccccc4)c4ccccc4)C(C)=C1C3(C)C)[C@]1(OC(C)=O)CO[C@@H]1C[C@@H]2O` [Paclitaxel, paclitaxel]: the Deaths/Total in data set [1] (Paclitaxel 7.5 mg/kg i.p. q.d. 5x/week) is on record as 2/10; in data set [1] (Paclitaxel 15 mg/kg i.p. q.d. 5x/week), 0/10; in data set [1] (Paclitaxel 30 mg/kg i.p. q.d. 3x/week), 0/10. In addition, the antitumor efficacy entry in data set [2] is on record as “only minimally effective”.
As to `Cn1cc(C2=C(c3cn(C)c4cc([N+](=O)[O-])ccc34)C(=O)NC2=O)c2ccccc21` [Compound II], the antitumor efficacy result in data set [2] is “only minimally effective”.
